Test results reported in ChEMBL document CHEMBL1138586 (Bioorg Med Chem Lett, 2009).

Target: Coagulation factor X (Homo sapiens, UniProt P00742)
Assay: Inhibition of Factor 10a
Conditions: not given

Sequence of Coagulation factor X (P00742 41-179 limits assumed): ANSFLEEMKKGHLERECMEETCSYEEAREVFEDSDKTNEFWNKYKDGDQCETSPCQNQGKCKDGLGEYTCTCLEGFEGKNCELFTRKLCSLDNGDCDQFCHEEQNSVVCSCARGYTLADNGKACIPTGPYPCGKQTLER
Sequence of Coagulation factor X (P00742 235-488 limits assumed): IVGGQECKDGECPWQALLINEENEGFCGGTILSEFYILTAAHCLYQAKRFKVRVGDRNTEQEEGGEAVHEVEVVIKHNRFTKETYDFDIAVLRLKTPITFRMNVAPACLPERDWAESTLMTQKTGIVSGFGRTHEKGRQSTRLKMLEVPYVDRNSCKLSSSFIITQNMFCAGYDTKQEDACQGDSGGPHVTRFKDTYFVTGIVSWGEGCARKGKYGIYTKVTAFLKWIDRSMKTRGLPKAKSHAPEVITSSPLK

Row | SMILES | IC50
1 | CN(C)C(=N)c1ccc(C(=O)Nc2c(Cl)cccc2C(=O)Nc2ccc(Cl)cn2)cc1 | 21 nM
2 | CN(C)C(=N)c1ccc(C(=O)Nc2ccc(OCC(F)(F)F)cc2C(=O)Nc2ccc(Cl)cn2)cc1 | 10 nM
3 | CN(C)C(=N)c1ccc(C(=O)Nc2ccc(Cl)cc2C(=O)Nc2ccc(F)cn2)cc1 | 3 nM
4 | Cc1ccc(NC(=O)c2ccc(C(=N)N(C)C)cc2)c(C(=O)Nc2ccc(Cl)cn2)c1 | 0.7 nM
5 | N=C(c1ccc(C(=O)Nc2ccc(Cl)cc2C(=O)Nc2ccc(Cl)cn2)cc1)N1CCOCC1 | 2 nM
6 | CN(C)C(=N)c1ccc(C(=O)Nc2ccc(S(C)(=O)=O)cc2C(=O)Nc2ccc(Cl)cn2)cc1 | 1.5 nM
7 | COCCN(C)c1cc(C(=N)N(C)C)ccc1C(=O)Nc1ccc(Cl)cc1C(=O)Nc1ccc(Cl)cn1 | 0.5 nM
8 | CN(C)C(=N)c1ccc(C(=O)Nc2ccc(Cl)cc2C(=O)Nc2ccc(Cl)cn2)cn1 | 3 nM
9 | COCCOc1cc(C(=N)N(C)C)ccc1C(=O)Nc1ccc(Cl)cc1C(=O)Nc1ccc(Cl)cn1 | 1.2 nM
10 | CN(C)C(=N)c1ccc(C(=O)Nc2ccc(Cl)cc2C(=O)Nc2ccc(Cl)cn2)c(N2CCC2)c1 | 0.4 nM
11 | COc1cc(C(=N)N(C)C)ccc1C(=O)Nc1ccc(Cl)cc1C(=O)Nc1ccc(Cl)cn1 | 0.5 nM
12 | CN(C)C(=N)c1ccc(C(=O)Nc2ccc(Cl)cc2C(=O)Nc2ccc(Cl)cn2)c(N2CCCCC2)c1 | < 0.5 nM
13 | CN(C)C(=N)c1ccc(C(=O)Nc2c(C(=O)Nc3ccc(Cl)cn3)cc(Cl)cc2N(C)C)cc1 | 0.5 nM
14 | C#Cc1ccc(NC(=O)c2ccc(C(=N)N(C)C)cc2)c(C(=O)Nc2ccc(Cl)cn2)c1 | < 0.5 nM
15 | CN(C)C(=N)c1ccc(C(=O)Nc2ccc(Cl)cc2C(=O)Nc2ccc(Cl)cn2)c(N2CCCCCC2)c1 | 1 nM
16 | CN(C)C(=N)c1csc(C(=O)Nc2ccc(Cl)cc2C(=O)Nc2ccc(Cl)cn2)c1 | 1 nM
17 | CN(C)C(=N)c1ccc(C(=O)Nc2ccc(Cl)cc2C(=O)Nc2ccc(Cl)cn2)c(N2CCC(C(=O)O)CC2)c1 | 0.7 nM
18 | CN(C)C(=N)c1ccc(C(=O)Nc2ccc(Cl)cc2C(=O)Nc2ccc(Cl)cc2)cc1 | 0.7 nM
19 | COc1ccc(NC(=O)c2ccc(C(=N)N(C)C)cc2N2CCC(C(=O)O)CC2)c(C(=O)Nc2ccc(Cl)cn2)c1 | 0.9 nM
20 | CN(C)C(=N)c1ccc(C(=O)Nc2ccc(Cl)cc2C(=O)Nc2ccc(Cl)nc2)cc1 | 3 nM
21 | CN(C)C(=N)c1ccc(C(=O)Nc2ccc(F)cc2C(=O)Nc2ccc(Cl)cn2)cc1 | 1.4 nM
22 | CN(C)C(=N)c1ccc(C(=O)Nc2ccc(OCC(=O)O)cc2C(=O)Nc2ccc(Cl)cn2)cc1 | 6 nM
23 | CCN(C)c1cc(Cl)cc(C(=O)Nc2ccc(Cl)cn2)c1NC(=O)c1ccc(C(=N)N(C)C)cc1 | 0.5 nM
24 | CN(C)C(=N)c1ccc(C(=O)Nc2c(C(=O)Nc3ccc(Cl)cn3)cc(Cl)cc2N2CCCCC2)cc1 | 0.9 nM
25 | N=C(c1ccc(C(=O)Nc2ccc(Cl)cc2C(=O)Nc2ccc(Cl)cn2)cc1)N1CCCC1 | 2 nM
26 | CN(C)C(=N)c1ccc(C(=O)Nc2c(C(=O)Nc3ccc(Cl)cn3)cc(Cl)cc2N2CCOCC2)cc1 | 1.3 nM
27 | N=C(c1ccc(C(=O)Nc2ccc(Cl)cc2C(=O)Nc2ccc(Cl)cn2)cc1)N1CCC(C(=O)O)CC1 | 2 nM

Row | SMILES | IC50
28 | COc1cc(Cl)cc(C(=O)Nc2ccc(Cl)cn2)c1NC(=O)c1ccc(C(=N)N(C)C)cc1 | 0.6 nM
29 | CN(C)C(=N)c1ccc(C(=O)Nc2ccc(Cl)cc2C(=O)Nc2ccc(Cl)cn2)c(N2CCCC2)c1 | 2 nM
30 | CN(C)C(=N)c1ccc(C(=O)Nc2ccc(C(F)(F)F)cc2C(=O)Nc2ccc(Cl)cn2)cc1 | 1.3 nM
31 | COc1cc(C(=O)Nc2ccc(Cl)cc2C(=O)Nc2ccc(Cl)cn2)ccc1C(=N)N(C)C | 7 nM
32 | CN(C)C(=N)c1ccc(C(=O)Nc2ccsc2C(=O)Nc2ccc(Cl)cn2)cc1 | 2 nM
33 | N=C(c1ccc(C(=O)Nc2ccc(Cl)cc2C(=O)Nc2ccc(Cl)cn2)cc1)N1CCC1 | 1.2 nM
34 | C#Cc1ccc(NC(=O)c2cc(Cl)ccc2NC(=O)c2ccc(C(=N)N(C)C)cc2)cc1 | 0.9 nM
35 | CN(C)C(=N)c1ccc(C(=O)Nc2cc(Cl)ccc2C(=O)Nc2ccc(Cl)cn2)cc1 | 2 nM
36 | CN(C)CCOc1cc(C(=N)N(C)C)ccc1C(=O)Nc1ccc(Cl)cc1C(=O)Nc1ccc(Cl)cn1 | < 0.5 nM
37 | COc1ccc(NC(=O)c2ccc(C(=N)N(C)C)cc2N2CCCCC2)c(C(=O)Nc2ccc(Cl)cn2)c1 | 2 nM
38 | CN1CCN=C1c1ccc(C(=O)Nc2ccc(Cl)cc2C(=O)Nc2ccc(Cl)cn2)cc1 | 1.5 nM
39 | CN(C)C(=N)c1ccc(C(=O)Nc2ccc(Cl)cc2C(=O)Nc2ccc(Cl)cn2)cc1F | 1.1 nM
40 | CCOc1cc(Cl)cc(C(=O)Nc2ccc(Cl)cn2)c1NC(=O)c1ccc(C(=N)N(C)C)cc1 | 0.6 nM
41 | CCc1ccc(NC(=O)c2ccc(C(=N)N(C)C)cc2)c(C(=O)Nc2ccc(Cl)cn2)c1 | 1 nM
42 | CC(C)Oc1cc(Cl)cc(C(=O)Nc2ccc(Cl)cn2)c1NC(=O)c1ccc(C(=N)N(C)C)cc1 | 0.5 nM
43 | CN(C)C(=N)c1ccc(C(=O)Nc2ccc(Cl)cc2C(=O)Nc2ccc(Cl)cn2)c(N(C)C)c1 | 3 nM
44 | N=C(c1ccc(C(=O)Nc2ccc(Cl)cc2C(=O)Nc2ccc(Cl)cn2)cc1)N1CCCCC1 | 1.3 nM
45 | CN(C)C(=N)c1ccc(C(=O)Nc2ccc(OC(F)(F)F)cc2C(=O)Nc2ccc(Cl)cn2)cc1 | 17 nM
46 | COCCN(C)c1cc(Cl)cc(C(=O)Nc2ccc(Cl)cn2)c1NC(=O)c1ccc(C(=N)N(C)C)cc1 | 1.2 nM
47 | CN(C)C(=N)c1ccc(C(=O)Nc2ccc(C#N)cc2C(=O)Nc2ccc(Cl)cn2)cc1 | 1.2 nM
48 | CCN(C)C(=N)c1ccc(C(=O)Nc2ccc(Cl)cc2C(=O)Nc2ccc(Cl)cn2)cc1 | 0.9 nM
49 | CCN1CCN=C1c1ccc(C(=O)Nc2ccc(Cl)cc2C(=O)Nc2ccc(Cl)cn2)cc1 | 6 nM
50 | CN(C)C(=N)c1ccc(C(=O)Nc2ccc(Cl)cc2C(=O)Nc2ccc(Cl)cn2)c(N2CCOCC2)c1 | 0.7 nM
51 | Cc1ccc(NC(=O)c2cc(Cl)ccc2NC(=O)c2ccc(C(=N)N(C)C)cc2)nc1 | 1.1 nM
52 | CN(C)C(=N)c1ccc(C(=O)Nc2ccc(Cl)cc2C(=O)Nc2ccc(Cl)s2)cc1 | 6 nM
53 | CCSc1ccc(NC(=O)c2ccc(C(=N)N(C)C)cc2)c(C(=O)Nc2ccc(Cl)cn2)c1 | 1.3 nM

Tested on: not listed separately
Assay: Half life in rat
Format: ADME, organism-based
Conditions: in vivo

Row | SMILES | half-life
54 | C#Cc1ccc(NC(=O)c2ccc(C(=N)N(C)C)cc2)c(C(=O)Nc2ccc(Cl)cn2)c1 | 8.4 h

Tested on: not listed separately
Assay: Oral bioavailability in rat
Format: ADME, organism-based
Conditions: in vivo

Row | SMILES | bioavailability
55 | CN(C)C(=N)c1ccc(C(=O)Nc2ccc(Cl)cc2C(=O)Nc2ccc(Cl)cn2)c(N2CCCCC2)c1 | 21.3%
56 | C#Cc1ccc(NC(=O)c2ccc(C(=N)N(C)C)cc2)c(C(=O)Nc2ccc(Cl)cn2)c1 | 27.9%
57 | COc1ccc(NC(=O)c2ccc(C(=N)N(C)C)cc2N2CCC(C(=O)O)CC2)c(C(=O)Nc2ccc(Cl)cn2)c1 | < 5%
58 | CN(C)C(=N)c1ccc(C(=O)Nc2ccc(OCC(=O)O)cc2C(=O)Nc2ccc(Cl)cn2)cc1 | < 5%
59 | COc1cc(Cl)cc(C(=O)Nc2ccc(Cl)cn2)c1NC(=O)c1ccc(C(=N)N(C)C)cc1 | 11.2%
60 | CN(C)C(=N)c1ccc(C(=O)Nc2ccc(Cl)cc2C(=O)Nc2ccc(Cl)cn2)c(N2CCCC2)c1 | 6.9%
61 | COCCN(C)c1cc(Cl)cc(C(=O)Nc2ccc(Cl)cn2)c1NC(=O)c1ccc(C(=N)N(C)C)cc1 | 8.1%

Tested on: not listed separately
Assay: Clearance in rat
Format: ADME, organism-based
Conditions: in vivo

Row | SMILES | clearance
62 | C#Cc1ccc(NC(=O)c2ccc(C(=N)N(C)C)cc2)c(C(=O)Nc2ccc(Cl)cn2)c1 | 74.8 mL/min/kg
